Assays:
[1] = Mouse liver microsome stability; format: in vitro ADME; settings: 0.5 mg protein/mL, 37 °C
[2] = In vivo pharmacokinetic study, oral dosing; design: species or system male C57BL/6J mice
[3] = mouse, liver microsomes, read-out: MLM t1/2
[4] = male, C57BL/6J, mouse plasma, PO 10 mg/kg, second number = SD

| half-life at 1 h, 1 µM [1, 3] [min] | MLM t1/2 ([1]; mouse liver microsomes, 1 μM) [min] | half-life at 1 μM [1, 3] [min] | half-life ([2]; male, C57BL/6J, plasma, mouse, oral dosing 10 mg/kg) [min] | Cmax at 24 h ([2]; male, C57BL/6J, mouse plasma, PO 10 mg/kg) [nM] | Tmax at 24 h [2, 4] [min] | half-life at 24 h [2, 4] [min] | MRT inf at 24 h ([2]; male, C57BL/6J, mouse plasma, PO 10 mg/kg, second number = SD, read-out: MRT0-inf) [min] | oral bioavailability (in words) ([2]; mouse, oral dosing 10 mg/kg) | Compound |
| --- | --- | --- | --- | --- | --- | --- | --- | --- | --- |
| 7.2 | – | – | – | – | – | – | – | – | [O-][n+]1cccc(CCOc2ccc(Cl)c(C3CC3)c2)c1 [Compound 41, 3-(2-(4-Chloro-3-cyclopropylphenoxy)ethyl)pyridine 1-oxide] |
| 11.7 | – | – | – | – | – | – | – | – | O=c1cccc(CCOc2ccc(Cl)cc2)[nH]1 [Compound 60, 6-(2-(4-Chlorophenoxy)ethyl)pyridin-2-ol] |
| – | 104.7 | 105 | 53 | 310 | 25 | 53.3 | 81 | orally bioavailable | [O-][n+]1cc(O)cc(CCCc2ccc(Cl)c(C(F)(F)F)c2)c1 [Compound 69, 3-(3-(4-Chloro-3-(trifluoromethyl)phenyl)propyl)-5-hydroxypyridine 1-oxide] |

From PMC10788923 (Journal of Medicinal Chemistry, 2023)
